Columns and labels:
[1] = VM26 plasma pharmacokinetics alone and with CSA (HPLC, compartmental model); assay type: in vivo, patients
Procedure: (§1) British Joumal of Cancer (1997) 75(5), 715-721 ? […] Sixteen patients initially received VM26 alone (200 mg m-2 day-' i.v.). […] For this reason, new approaches are highly recommended after a first-line treatment, usually interleukin 2 based (Yagoda et al, 1995). […] P-gp deter- mines reduced intracellular drug accumulation and/or altered intracellular drug compartmentation, preventing drugs from reaching the intracellular target site (Skovsgaard, 1978, Schuurhuis et al, 1989). […] Received 2 June 1996 Revised 2 October 1996 Accepted 17 October 1996 Correspondence to: M Boiocchi, Division of Experimental Oncology 1, Centro di Riferimento Oncologico, via Pedemontana Occidentale 12, 33081 Aviano (PN), Italy Although many chemosensitizers have been used successfully in vitro in MDR cell lines, their potential therapeutic role in the clinical setting remains an intriguing issue. […] This could determine alteration in the pharmacokinetics and pharmacodynamics of the cytotoxic agents (Lum et al, 1992; Wilson et al, 1995). […] The study was approved by the local ethics committee and informed consent was obtained from all patients. Treatment protocol The patients received the first course of VM26 (Vumon; Bristol Myers, Rome, Italy) at the dosage of 200 mg m-2 day-' i.v. every 3 weeks. The second cycle (same dosage) was administered in the event of response or stable disease, if no toxicity was documented. In the event of grade 4 toxicity the dose was reduced by 25%. […] The patients were clinically evaluated according to the usual phase II trials criteria (WHO), and blood tests were performed weekly. […] To determine the VM26 level, 5-ml blood samples were drawn from peripheral vein and collected in heparinized glass tubes before treatment at 0 h (i.e. immediately before the begin- ning of i.v. infusion of VM26) and at 1,6, 12, 18, 24,24.5,25,26, 28, 32, 36, 48 and 60h. Plasma samples, which were separated after centrifugation at 1000 g for 10 min, were kept frozen at - 20'C until analysis. Urine samples were collected before, during and after VM26 treatment. Each 12-h sample from well-stirred urine was stored and kept frozen at -20?C until analysis. […] These samples were frozen at -70?C until analysis. Drug assays The method used to determine VM26 in plasma samples was that described by Evans et al (1982). Briefly, 1 ml of plasma or urine was extracted with 8 ml of chloroform containing VP16 (100 gl of a 200-,ug ml solution) as internal standard. After 20-min shaking at +4?C, samples were centrifuged at 1500 g for 20 min at +4?C. The organic phase was dried under vacuum and then redissolved with 200 gl of methanol; 50 µl of this solution as injected into an LKB-Pharmacia (Cambridge, UK) high-performance liquid chro- matography (HPLC) system equipped with an absorbance detector set at 254 nm. Separation was achieved using an isocratic solvent system of water-acetonitrile-acetic acid (64:35:1) at a flow of 1 ml min-, using a 300 x 3.9-mm long ,uBondapak phenyl column (Waters, New York, NY, USA). Peak areas were quantitated with an LKB integrator. […] To calculate the concentrations of VM26, the internal standard method was adopted. […] Pharmacokinetic analyses To define the plasma concentration-time function and to estimate pharmacokinetic parameters of VM26 for each patient, a compart- mental model was adopted. Drug infusion and non-saturable elim- ination processes were considered zero-order and first-order processes respectively. Estimates of pharmacokinetic parameters [apparent volume of distribution (V); elimination half-life (t1,2p); systemic clearance (CI); maximum drug concentration (Cmax); and area under curve (AUC)] of VM26 and the numerical validation of the model were obtained by PCNONLIN 4.0, a non-linear regression program.

[2] = Total and renal clearance of VM26 (urine collection, seven patients); assay type: in vivo
Procedure: British Joumal of Cancer (1997) 75(5), 715-721 ? […] Sixteen patients initially received VM26 alone (200 mg m-2 day-' i.v.). […] For this reason, new approaches are highly recommended after a first-line treatment, usually interleukin 2 based (Yagoda et al, 1995). […] P-gp deter- mines reduced intracellular drug accumulation and/or altered intracellular drug compartmentation, preventing drugs from reaching the intracellular target site (Skovsgaard, 1978, Schuurhuis et al, 1989). […] Received 2 June 1996 Revised 2 October 1996 Accepted 17 October 1996 Correspondence to: M Boiocchi, Division of Experimental Oncology 1, Centro di Riferimento Oncologico, via Pedemontana Occidentale 12, 33081 Aviano (PN), Italy Although many chemosensitizers have been used successfully in vitro in MDR cell lines, their potential therapeutic role in the clinical setting remains an intriguing issue. […] The patients were clinically evaluated according to the usual phase II trials criteria (WHO), and blood tests were performed weekly. […] The organic phase was dried under vacuum and then redissolved with 200 gl of methanol; 50 µl of this solution as injected into an LKB-Pharmacia (Cambridge, UK) high-performance liquid chro- matography (HPLC) system equipped with an absorbance detector set at 254 nm. […] Peak areas were quantitated with an LKB integrator. […]

[3] = system: metastatic renal cell carcinoma; assay: Treatment response, phase II (WHO criteria); assay type: in vivo, patients
Procedure: as §1

[4] = in vivo
Procedure: as §1

[5] = VM26 alone, first cycle, 16 patients
[6] = nine patients after two courses of VM26 alone

## COc1cc([C@@H]2c3cc4c(cc3[C@@H](O[C@@H]3O[C@@H]5CO[C@@H](c6cccs6)O[C@H]5[C@H](O)[C@H]3O)[C@H]3COC(=O)[C@H]23)OCO4)cc(OC)c1O [VM26, teniposide]
[1]; [5]
  AUC of VM26, median (range): 290.3 (168.4-791.0) mg l-1 h
  Cl of VM26, median (range): 0.62 (0.25-1.2) l h-1 m-2
  Cmax of VM26, median (range): 10.9 (7.0-22.3) mg l-1
  V of VM26, median (range): 5.5 (4.4-9.0) l m-2
  t1/2 of VM26, median (range): 6.8(2.8-14.8) h
[1]; after CSA versus VM26 alone
  variation in the paired AUC of VM26: 50%
[1]; when CSA was added, P<0.01
  decrease of systemic clearance of VM26: 1.4 fold
[2]; VM26 alone
  fraction of total clearance resulting from renal clearance: < 6%
[2]; VM26 plus CSA versus VM26 alone, seven patients, P<0.05
  Decrease of total Cl of VM26: 21%
[3]; VM26 alone 200 mg m-2 day-1 i.v., sixteen patients
  objective responses: No objective responses
[3]; [6]
  progressive disease, patients: six
  stable disease, patients: three
[3]; patient 1, 2 cycles
  Response (VM26): SD (stable disease)
[3]; patient 2, 2 cycles
  Response (VM26): PD (progressive disease)
[3]; patient 3, 2 cycles
  Response (VM26): PD (progressive disease)
[3]; patient 4, 2 cycles
  Response (VM26): PD (progressive disease)
[3]; patient 5, 2 cycles
  Response (VM26): SD (stable disease)
[3]; patient 6, 2 cycles
  Response (VM26): SD (stable disease)
[3]; patient 7, 2 cycles
  Response (VM26): PD (progressive disease)
[3]; patient 8, 2 cycles
  Response (VM26): PD (progressive disease)
[3]; patient 9, 2 cycles
  Response (VM26): PD (progressive disease)
[4]
  ANC/AUC ratio (nadir ANC standardized for AUC of VM26): 7.38 ± 5.51
  bilirubin (in the normal range): < 1.5 mg 100 ml-1
  cutaneous eruption, patients: one patient
  cycles with significant vomiting, mucositis or constipation: < 15 % of cycles
  grade 3 neutropenia, patients: three
  hair loss, patients: all patients
  nadir neutrophil count (ANC), median: 1900 µL⁻¹
  nadir neutrophil count (ANC), range: 200 to 6000 µL⁻¹

— article PMC2063346, “Cyclosporin A as a multidrug-resistant modulator in patients with renal cell carcinoma treated with teniposide” (British Journal of Cancer, 1997)
